Results: ChEMBL document CHEMBL5579847, “Synthesis, design, and optimization of a potent and selective series of pyridylpiperazines as promising antimalarial agents” (Eur J Med Chem, 2024)
Each block holds one molecule with its values, some of them ahead of it. Activity calls are given as the source filed them. The calls are words filed in the database; no cut-off is given here.

Key:
Plasmodium falciparum [1] = assay: Antimalarial activity against Plasmodium falciparum 3D7 infected in red blood cells after 96 hrs by SYBR Green I dye based fluorescence assay; type: functional, organism-based, Red blood cell; details: 3D7, Erythrocyte
[2] = Selectivity index, ratio of CC50 for cytotoxicity against human HepG2 cell to IC50 for antimalarial activity against Plasmodium falciparum 3D7 infected in red blood cells; type: toxicity, cell-based; details: read-out: Ratio CC50/IC50
[3] = Cytotoxicity against human HepG2 cells assessed as reduction in cell viability after 48 hrs by WST-1 assay; type: toxicity, cell-based
Plasmodium falciparum [4] = assay: Antimalarial activity against chloroquine-resistant Plasmodium falciparum Dd2 infected in red blood cells after 96 hrs by SYBR Green I dye based fluorescence assay; type: functional, organism-based, Red blood cell; details: Dd2, Erythrocyte
[5] = Selectivity index, ratio of CC50 for cytotoxicity against human HepG2 cell to IC50 for antimalarial activity against chloroquine-resistant Plasmodium falciparum Dd2 infected in red blood cells; type: toxicity, cell-based; details: read-out: Ratio CC50/IC50
[6] = molecular target: T1, Dihydroorotate dehydrogenase (quinone), mitochondrial (Plasmodium falciparum (isolate 3D7)) (UniProt Q08210); assay: Inhibition of Plasmodium falciparum DHODH at 250 uM relative to control
T1 sequence (whole entry): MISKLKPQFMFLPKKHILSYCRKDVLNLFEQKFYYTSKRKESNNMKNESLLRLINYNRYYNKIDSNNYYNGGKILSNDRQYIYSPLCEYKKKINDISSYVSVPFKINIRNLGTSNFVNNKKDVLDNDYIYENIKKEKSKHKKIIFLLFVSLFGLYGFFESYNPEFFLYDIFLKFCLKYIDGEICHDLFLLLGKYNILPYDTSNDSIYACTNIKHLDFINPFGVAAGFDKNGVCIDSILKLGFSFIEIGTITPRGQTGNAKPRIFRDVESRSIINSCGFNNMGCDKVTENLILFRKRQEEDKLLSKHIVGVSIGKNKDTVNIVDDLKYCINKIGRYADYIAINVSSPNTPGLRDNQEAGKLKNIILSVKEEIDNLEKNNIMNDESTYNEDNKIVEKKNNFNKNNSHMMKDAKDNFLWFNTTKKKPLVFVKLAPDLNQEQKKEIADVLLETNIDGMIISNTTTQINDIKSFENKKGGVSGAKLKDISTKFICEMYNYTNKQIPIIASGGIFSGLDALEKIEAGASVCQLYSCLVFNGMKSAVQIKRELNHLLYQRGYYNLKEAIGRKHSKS

[7] = molecular target: T1, Dihydroorotate dehydrogenase (quinone), mitochondrial (Plasmodium falciparum (isolate 3D7)); assay: Inhibition of Plasmodium falciparum DHODH

IC50 (Plasmodium falciparum [1]): > 100 µM
Structure (SMILES): O=C(NC1CC1)c1ccc(N2CCNCC2)nc1

IC50 (Plasmodium falciparum [1]): 46.4 µM
Structure (SMILES): Nc1cccnc1N1CCN(c2ccc(C(=O)NC3CC3)cn2)CC1

IC50 (Plasmodium falciparum [1]): 13.9 µM
Structure (SMILES): O=C(NC1CC1)c1ccc(N2CCN(c3ccccn3)CC2)nc1
selectivity ratio [2]: > 7
CC50 at 48 h [3]: > 100 µM

Structure (SMILES): O=C(NC1CC1)c1ccc(N2CCN(c3ncccn3)CC2)nc1
IC50 (Plasmodium falciparum [4]): 10.5 µM
IC50 (Plasmodium falciparum [1]): 5.6 µM

Structure (SMILES): Cc1ccccc1N1CCN(c2ccc(C(=O)NC3CC3)cn2)CC1
IC50 (Plasmodium falciparum [4]): 0.7 µM
selectivity ratio [2]: > 100
CC50 at 48 h [3]: > 100 µM
IC50 (Plasmodium falciparum [1]): 1 µM
selectivity ratio [5]: > 143
inhibition [6]: 30%

Structure (SMILES): O=C(NC1CC1)c1ccc(N2CCN(c3ccccc3)CC2)nc1
IC50 (Plasmodium falciparum [4]): 3.3 µM
selectivity ratio [2]: > 21
CC50 at 48 h [3]: > 100 µM
IC50 (Plasmodium falciparum [1]): 6 µM
selectivity ratio [5]: > 30

Structure (SMILES): O=C(NC1CC1)c1ccc(N2CCN(c3cccc(O)c3)CC2)nc1
IC50 (Plasmodium falciparum [4]): 7.3 µM
selectivity ratio [2]: 9
CC50 at 48 h [3]: 36.2 µM
IC50 (Plasmodium falciparum [1]): 4.1 µM
selectivity ratio [5]: 5

Structure (SMILES): COc1ccc(CN2CCN(c3ccc(C(=O)NC4CC4)cn3)CC2)cc1
IC50 (Plasmodium falciparum [4]): 13 µM
selectivity ratio [2]: > 15
CC50 at 48 h [3]: > 100 µM
IC50 (Plasmodium falciparum [1]): 6.5 µM
selectivity ratio [5]: > 8

IC50 (Plasmodium falciparum [1]): > 100 µM
Structure (SMILES): CN1CCN(c2ccc(C(=O)NC3CC3)cn2)CC1

Structure (SMILES): O=C(NC1CC1)c1ccc(N2CCN(c3ncccc3C(F)(F)F)CC2)nc1
IC50 (Plasmodium falciparum [4]): 4.4 µM
inhibition [7]: inactive
selectivity ratio [2]: > 96
CC50 at 48 h [3]: > 100 µM
IC50 (Plasmodium falciparum [1]): 1 µM
selectivity ratio [5]: > 23

Structure (SMILES): O=C(NC1CC1)c1ccc(N2CCN(c3ccc(C(F)(F)F)cn3)CC2)nc1
IC50 (Plasmodium falciparum [4]): 1.6 µM
IC50 (Plasmodium falciparum [1]): 1.1 µM

IC50 (Plasmodium falciparum [1]): > 100 µM
Structure (SMILES): O=C(NC1CC1)c1ccc(N2CCN(C(=O)c3ccccc3)CC2)nc1

Structure (SMILES): N#Cc1cccnc1N1CCN(c2ccc(C(=O)NC3CC3)cn2)CC1
IC50 (Plasmodium falciparum [4]): 15 µM
selectivity ratio [2]: > 15
CC50 at 48 h [3]: > 100 µM
IC50 (Plasmodium falciparum [1]): 6.7 µM
selectivity ratio [5]: > 7

Structure (SMILES): CCN(CC)CCCC(C)Nc1ccnc2cc(Cl)ccc12 (stereo unspecified) [CHLOROQUINE]
IC50 (Plasmodium falciparum [1]): 10.2 µM

Structure (SMILES): O=C(NC1CC1)c1ccc(N2CCN(c3ccccc3Cl)CC2)nc1
IC50 (Plasmodium falciparum [4]): 0.7 µM
IC50 (Plasmodium falciparum [1]): 0.4 µM

Structure (SMILES): O=C(NC1CC1)c1ccc(N2CCN(c3ncccc3[N+](=O)[O-])CC2)nc1
IC50 (Plasmodium falciparum [4]): 10.2 µM
selectivity ratio [2]: 9
CC50 at 48 h [3]: 51.2 µM
IC50 (Plasmodium falciparum [1]): 5.7 µM
selectivity ratio [5]: 5

Structure (SMILES): O=C(NC1CC1)c1ccc(N2CCN(c3ccccc3F)CC2)nc1
IC50 (Plasmodium falciparum [4]): 2.3 µM
inhibition [7]: inactive
IC50 (Plasmodium falciparum [1]): 1.3 µM

IC50 (Plasmodium falciparum [1]): 37.2 µM
Structure (SMILES): O=C(NC1CC1)c1ccc(N2CCN(S(=O)(=O)c3ccccc3)CC2)nc1

Structure (SMILES): O=C(NC1CC1)c1ccc(N2CCN(Cc3ccccc3)CC2)nc1
IC50 (Plasmodium falciparum [4]): 6.1 µM
selectivity ratio [2]: 1
CC50 at 48 h [3]: 12.1 µM
IC50 (Plasmodium falciparum [1]): 10.9 µM
selectivity ratio [5]: 2

Structure (SMILES): COc1ccc(N2CCN(c3ccc(C(=O)NC4CC4)cn3)CC2)cc1
IC50 (Plasmodium falciparum [4]): 9.4 µM
IC50 (Plasmodium falciparum [1]): 2.9 µM

Structure (SMILES): O=C(NC1CC1)c1ccc(N2CCN(c3cnccn3)CC2)nc1
IC50 (Plasmodium falciparum [4]): 3.6 µM
inhibition [7]: inactive
selectivity ratio [2]: > 36
CC50 at 48 h [3]: > 100 µM
IC50 (Plasmodium falciparum [1]): 2.8 µM
selectivity ratio [5]: > 28

IC50 (Plasmodium falciparum [1]): > 100 µM
Structure (SMILES): O=C(NC1CC1)c1ccc(N2CCN(C(=O)c3ccccn3)CC2)nc1

Structure (SMILES): O=C(NC1CC1)c1ccc(N2CCN(c3ccccc3C(F)(F)F)CC2)nc1
IC50 (Plasmodium falciparum [4]): 0.5 µM
inhibition [7]: inactive
selectivity ratio [2]: > 59
CC50 at 48 h [3]: > 100 µM
IC50 (Plasmodium falciparum [1]): 1.7 µM
selectivity ratio [5]: > 200
inhibition [6]: 20%
